Reference: publication PMC10191403, “The C-terminal 32-mer fragment of hemoglobin alpha is an amyloidogenic peptide with antimicrobial properties” (Cellular and Molecular Life Sciences: CMLS, 2023)
Ends that are not written are not given here.

Tests used:
[1] = system: THP-1-derived macrophages; assay: Phagocytosis of E. coli-GFP by THP-1-derived macrophages; type: cell-based, human; settings: E. coli-GFP pre-incubated with 1 mg/ml fibrils, 3 h on cells; CytD 2 µg/ml pre-treatment 30 min; confocal microscopy
HSV-2 = type: cell-based; settings: serial dilutions of peptides added to ELVIS cells, infected 1 h later with HSV-2; lacZ enzyme activity one day post-infection; ±SD; one (inactive) to three (active) experiments in triplicates
[2] = Thioflavin T (ThT) assay of fibril formation; type: physicochemical; settings: formation of ThT positive aggregates

C=C1[C@@H](C)[C@H]2[C@H](Cc3ccccc3)NC(=O)[C@]23[C@H](OC(C)=O)/C=C/[C@@](C)(O)C(=O)[C@@H](C)C/C=C/[C@H]3[C@@H]1O [CytD, Cytochalasin D]
uptake of E. coli-GFP by macrophages [1]: prevented the uptake of any bacteria

AAHLPAEFTPAVHASLDKFLA [HBA(111–131)]
IC50 (antiviral activity, HSV-2) (HSV-2): > 130 µg/mL
ThT signal (+/-) [2]: -

ASVSTVL [HBA 131-137]
IC50 (antiviral activity, HSV-2) (HSV-2): > 130 µg/mL
ThT signal (+/-) [2]: +

KFLASVST [HBA 128-135]
IC50 (antiviral activity, HSV-2) (HSV-2): > 130 µg/mL
ThT signal (+/-) [2]: -

LASVSTVL [HBA 130-137]
IC50 (antiviral activity, HSV-2) (HSV-2): > 130 µg/mL
ThT signal (+/-) [2]: +

SVSTVL [HBA 132-137]
IC50 (antiviral activity, HSV-2) (HSV-2): > 130 µg/mL
ThT signal (+/-) [2]: -

SVSTVLTSKYR [HBA 132-142]
IC50 (antiviral activity, HSV-2) (HSV-2): > 130 µg/mL
ThT signal (+/-) [2]: -
